Tests used:
Format in all cases: physicochemical
[1] = Absorption spectrum in ethyl acetate solution (spectrophotometer UV-2400PC)
Procedure: In consideration of film thickness, the molar absorption coefficient of the specific metal complex compounds-1, -2, -3 and -4 of the invention is preferably as high as possible, and 60,000 or higher is preferable. The maximum absorption wavelength (λmax) thereof is preferably from 520 nm to 580 nm, and more preferably from 530 nm to 570 nm, in order to improve color purity. The maximum absorption wavelength and the molar absorption coefficient are determined by using a spectrophotometer UV-2400PC (manufactured by Shimadzu Corporation).
The molar absorption coefficient (ε) of each of the obtained compounds was measured in an ethyl acetate solution using a spectrophotometer (trade name: UV-2400PC; manufactured by Shimadzu Corporation). The absorbance (Abs) at 450 nm was evaluated by normalizing the absorbance at a maximum absorption wavelength (λmax) to 1.0. […] The measurement results of the absorbance (Abs value), maximum absorption wavelength (λmax), and molar absorption coefficient (ε) are shown in Table 1.
By the method similar to the reaction scheme in Synthesis Example 1 above, the exemplary compounds (dipyrromethene metal complex compounds or tautomers thereof) shown in Table 1 were synthesized. The identification of the compounds and the measurement of the maximum absorption wavelength (λmax) and the molar absorption coefficient (ε) of the compounds were performed similarly to Synthesis Example 1 above.

[2] = Storage stability of colored resist solution (precipitation after one month at room temperature); parameters: key: A: No precipitation was observed; B: Slight precipitation was observed; C: Precipitation was observed; conditions: negative-working colored resist solution, visual precipitation
From the text: 9.4 g of the resist solution obtained in section 1 above and 0.35 g of the exemplary compound Ia-12 synthesized above (a compound represented by Formula (4): dipyrromethene complex compound) were mixed and dissolved, whereby a colored resist solution (a negative-working ultraviolet-sensitive colored curable composition) was obtained.
The colored resist solution was stored for one month at room temperature, and then degree of precipitation was visually observed. The storage stability was evaluated according to the following criteria.
A: No precipitation was observed
B: Slight precipitation was observed
C: Precipitation was observed

[3] = Transmittance at 450 nm of the color filter; conditions: negative-working colored resist, 1.0 μm film; transmittance at λmax normalized to 2%
Procedure: The colored resist solution obtained in section 3 above was applied to an undercoat layer side of the glass substrate having an undercoat layer obtained in section 2 above by a spin coater such that a film thickness was 1.0 μm. Subsequently, the film was pre-baked at 100° C. for 120 sec, whereby a monochromatic color filter was obtained.
The transmission spectrum of the color filter obtained above was measured, and the transmittance at 450 nm was evaluated according to the following criteria. The transmittance of the color filter at 450 nm was evaluated by correcting (normalizing) the transmittance at the maximum absorption wavelength of the colorant included in the color filter to 2%. A larger transmittance indicates greater transmission of blue light, which indicates favorable magenta or violet color that can be used in a blue filter.
A: Transmittance at 450 nm was 90% or more
B: Transmittance at 450 nm was 80% or more but not more than 90%
C: Transmittance at 450 nm was not more than 80%

[4] = Heat resistance of coating film (color difference ΔEab before and after heating); conditions: 100° C. for 1 hour on hot plate
Procedure: A glass substrate having undercoat layer formed by applying the colored resin composition obtained in section 3 above was heat-treated at 100° C. for 1 hour using a hot plate, and the color difference (ΔEab) between before and after the heating was determined by using a […] MCPD-1000 (trade name, manufactured by Otsuka Electronics Co., Ltd.). The heat resistance was evaluated according to the following criteria. A smaller AEab value indicates better heat resistance.
(§1) A: ΔEab value was less than 6
(§2) B: ΔEab value was from 6 to 10
(§3) C: ΔEab value was more than 10

[5] = Light-fastness of coating film (color difference ΔEab before and after xenon lamp irradiation); conditions: xenon lamp 20,000 luxes for 10 hours (200,000 lux·h)
Procedure: A glass substrate having undercoat layer formed by applying the colored resin composition obtained in section 3 above was irradiated with a xenon lamp at an intensity of 20,000 luxes for 10 hours (equivalent to 200,000 lux·h), and the color difference ΔEab between before and after the irradiation was determined. The light-fastness was evaluated according to the following criteria. A smaller ΔEab value indicates better light-fastness.
as §1, §2, §3

| maximum absorption wavelength (λmax) [1] | molar absorption coefficient (ε) [1] | Abs value at 450 nm when normalized to Abs = 1.0 at λmax [1] | Storage stability [2] | Heat resistance [4] | Light-fastness [5] | SMILES | Transmittance at 450 nm [3] |
| --- | --- | --- | --- | --- | --- | --- | --- |
| 565 nm | 121,000 | 0.082 | A | A (ΔEab value was less than 6) | A (ΔEab value was less than 6) | CC1CC(C(C)(C)C)C(OC(=O)C2=C(c3ccccc3)C3=Cc4c(-c5ccccc5)c(C(=O)OC5C(C(C)(C)C)CC(C)CC5C(C)(C)C)c(NC(=O)c5cc(F)ccc5NS(C)(=O)=O)[n]4[Zn-]([OH])[N+]3=C2NC(=O)c2cc(F)ccc2NS(C)(=O)=O)C(C(C)(C)C)C1 (stereo not drawn) [IIb-20] | A (Transmittance at 450 nm was 90% or more) |
| 550 nm | 121,300 | 0.0084 | A | A (ΔEab value was less than 6) | A (ΔEab value was less than 6) | CC1=C(C(=O)OC2C(C(C)(C)C)CC(C)CC2C(C)(C)C)C(NC(=O)c2ccc(F)c(F)c2)=[N+]2C1=Cc1c(C)c(C(=O)OC3C(C(C)(C)C)CC(C)CC3C(C)(C)C)c(NC(=O)c3ccc(F)c(F)c3)[n]1[Zn-]2[OH] (stereo not drawn) [IIa-13] | A (Transmittance at 450 nm was 90% or more) |
| 555 nm | 126,900 | 0.0081 | B | A (ΔEab value was less than 6) | A (ΔEab value was less than 6) | CC1=C(C(=O)OC2C(C(C)(C)C)CC(C)CC2C(C)(C)C)C(NC(=O)c2ccc(F)c([N+](=O)[O-])c2)=[N+]2C1=Cc1c(C)c(C(=O)OC3C(C(C)(C)C)CC(C)CC3C(C)(C)C)c(NC(=O)c3ccc(F)c([N+](=O)[O-])c3)[n]1[Zn-]2[OH] (stereo not drawn) [IIa-25] | A (Transmittance at 450 nm was 90% or more) |
| 561 nm | 92,600 | 0.0135 | A | A (ΔEab value was less than 6) | A (ΔEab value was less than 6) | CC1CC(C(C)(C)C)C(OC(=O)C2=C(c3ccccc3)C3=Cc4c(-c5ccccc5)c(C(=O)OC5C(C(C)(C)C)CC(C)CC5C(C)(C)C)c(NC(=O)c5ccc(OC(F)(F)F)cc5)[n]4[Zn-]([OH])[N+]3=C2NC(=O)c2ccc(OC(F)(F)F)cc2)C(C(C)(C)C)C1 (stereo not drawn) [IIb-8] | A (Transmittance at 450 nm was 90% or more) |

More lines, now with the values behind:

| SMILES | maximum absorption wavelength (λmax) [1] | molar absorption coefficient (ε) [1] | Abs value at 450 nm when normalized to Abs = 1.0 at λmax [1] | Storage stability [2] | Heat resistance [4] | Light-fastness [5] | Transmittance at 450 nm [3] |
| --- | --- | --- | --- | --- | --- | --- | --- |
| Cc1c(C(=O)OC2C(C(C)(C)C)CC(C)CC2C(C)(C)C)c(NC(=O)c2ccc(F)c(F)c2)[n]2c1C=C1C(c3ccccc3)=C(C#N)C(NC(=O)C(C)Sc3cc(C(=O)O)cc(C(=O)O)c3)=[N+]1[Zn-]2[OH] (stereo not drawn) [Ia-35] | 559 nm | 90,100 | 0.0106 | A | A (ΔEab value was less than 6) | A (ΔEab value was less than 6) | A (Transmittance at 450 nm was 90% or more) |
| CC1CC(C(C)(C)C)C(OC(=O)c2c(-c3ccccc3)c3[n](c2NC(=O)c2cc(F)ccc2NS(C)(=O)=O)[Zn-]([OH])[N+]2=C(NC(=O)C(C)Sc4cc(C(=O)O)cc(C(=O)O)c4)C(C#N)=C(c4ccccc4)C2=C3)C(C(C)(C)C)C1 (stereo not drawn) [Ib-49] | 566 nm | 91,500 | 0.0116 | B | A (ΔEab value was less than 6) | A (ΔEab value was less than 6) | A (Transmittance at 450 nm was 90% or more) |
| CC1CC(C(C)(C)C)C(OC(=O)C2=C(c3ccccc3)C3=Cc4c(-c5ccccc5)c(C(=O)OC5C(C(C)(C)C)CC(C)CC5C(C)(C)C)c(NC(=O)c5c(F)c(F)c(C(=O)O)c(F)c5F)[n]4[Zn-]([OH])[N+]3=C2NC(=O)c2c(F)c(F)c(C(=O)O)c(F)c2F)C(C(C)(C)C)C1 (stereo not drawn) [IIb-38] | 561 nm | 105,900 | 0.0099 | A | A (ΔEab value was less than 6) | A (ΔEab value was less than 6) | A (Transmittance at 450 nm was 90% or more) |
| CC1CC(C(C)(C)C)C(OC(=O)c2c(-c3ccccc3)c(C=C3N=C(NC(=O)C(C)SCCCS(=O)(=O)[O-])C(C#N)=C3c3ccccc3)[n]([Zn][OH])c2NC(=O)c2cc(F)cc(F)c2)C(C(C)(C)C)C1.[Na+] (stereo not drawn) [Ib-40] | 562 nm | 95,600 | 0.0082 | A | B (ΔEab value was from 6 to 10) | B (ΔEab value was from 6 to 10) | A (Transmittance at 450 nm was 90% or more) |
| CC1CC(C(C)(C)C)C(OC(=O)c2c(-c3ccccc3)c3[n](c2NC(=O)c2cccc(C(F)(F)F)c2)[Zn-]([OH])[N+]2=C(NC(=O)C(C)SCCCS(=O)(=O)[O-])C(C#N)=C(c4ccccc4)C2=C3)C(C(C)(C)C)C1.[Na+] (stereo not drawn) [Ib-20] | 563 nm | 88,700 | 0.0142 | A | B (ΔEab value was from 6 to 10) | B (ΔEab value was from 6 to 10) | A (Transmittance at 450 nm was 90% or more) |
| CC1CC(C(C)(C)C)C(OC(=O)c2c(-c3ccccc3)c3[n](c2NC(=O)c2c(F)c(F)c(F)c(F)c2F)[Zn-]([OH])[N+]2=C(NC(=O)C(C)Sc4cc(C(=O)O)cc(C(=O)O)c4)C(C#N)=C(c4ccccc4)C2=C3)C(C(C)(C)C)C1 (stereo not drawn) [Ib-75] | 564 nm | 106,400 | 0.0099 | A | A (ΔEab value was less than 6) | A (ΔEab value was less than 6) | A (Transmittance at 450 nm was 90% or more) |
| Cc1c(C(=O)OC2C(C(C)(C)C)CC(C)CC2C(C)(C)C)c(NC(=O)c2ccc(C(F)(F)F)cc2)[n]2c1C=C1C(c3ccccc3)=C(C#N)C(NC(=O)C(C)Sc3cc(C(=O)O)cc(C(=O)O)c3)=[N+]1[Zn-]2[OH] (stereo not drawn) [Ia-23] | 558 nm | 83,200 | 0.0099 | A | A (ΔEab value was less than 6) | A (ΔEab value was less than 6) | A (Transmittance at 450 nm was 90% or more) |
| CC1CC(C(C)(C)C)C(OC(=O)c2c(-c3ccccc3)c3[n](c2NC(=O)c2cc(C(F)(F)F)cc(C(F)(F)F)c2)[Zn-]([OH])[N+]2=C(NC(=O)C(C)Sc4cc(C(=O)O)cc(C(=O)O)c4)C(C#N)=C(c4ccccc4)C2=C3)C(C(C)(C)C)C1 (stereo not drawn) [Ib-41] | 562 nm | 76,500 | 0.0195 | A | A (ΔEab value was less than 6) | A (ΔEab value was less than 6) | A (Transmittance at 450 nm was 90% or more) |

— US8343696B2, “Colored curable composition, fluorine-containing dipyrromethene compound and tautomer thereof, and fluorine-containing dipyrromethene metal complex and tautomer thereof, and color filter using the same and method for producing the color filter” (FUJIFILM Corporation, priority 2008, dated 2013)
